Experimental data reported in the supplement of paper PMC10307832.

Experiments:
Test in all cases: relative viability (nuclei count vs DMSO), 5 days (fraction); higher = more cells survive
[1] = compound: CC[C@H](C)N1C=C(C2=C(C=C(C=C21)C3=CN=C(C=C3)N4CCNCC4)C(=O)NCC5=C(C=C(NC5=O)C)C)C [GSK126] + CC(=O)Nc1cccc(-n2c(=O)n(C3CC3)c(=O)c3c(Nc4ccc(I)cc4F)n(C)c(=O)c(C)c32)c1 [Trametinib] (partner 0.02 µM)
Summary of the method: (§1)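 Lung cancer cell lines were seeded in 1536-well plates and dosed by pin tool the next day, with either a single drug or a fixed anchor-drug dose combined with five library-drug doses (not always all listed) spaced in √10 steps. Five days later, one step fixed the cells and stained their nuclei (final 0.05% Triton X-100, 1% formaldehyde, 1 ug/ml Hoechst), and nuclei were counted on 4× images. Relative viability is the nuclei count in treated wells divided by the count in vehicle wells, and each value is the median of duplicate plates.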

[2] = compound: CC[C@H](C)N1C=C(C2=C(C=C(C=C21)C3=CN=C(C=C3)N4CCNCC4)C(=O)NCC5=C(C=C(NC5=O)C)C)C [GSK126] + N=C(N)NC(=N)NCCc1ccccc1 [Phenformin] (partner 250 µM)
Summary of the method: as §1

[3] = compound: C1CC(C1)(C(=O)O)C(=O)O.[NH2-].[NH2-].[Pt+2] [Carboplatin] + COc1cccc2cc(-c3nc([C@H]4CC[C@H](C(=O)O)CC4)n4ncnc(N)c34)[nH]c12 [OSI-027] (partner 0.5 µM)
Summary of the method: as §1

[4] = compound: C1CC(C1)(C(=O)O)C(=O)O.[NH2-].[NH2-].[Pt+2] [Carboplatin] + Cc1nc(Nc2ncc(C(=O)Nc3c(C)cccc3Cl)s2)cc(N2CCN(CCO)CC2)n1 [Dasatinib] (partner 0.075 µM)
Summary of the method: as §1

Cell Line	relative viability ([1]; first compound 0.08 µM)	relative viability ([1]; first compound 0.253 µM)	relative viability ([1]; first compound 0.8 µM)	relative viability ([1]; first compound 2.53 µM)	relative viability ([1]; first compound 8 µM)	relative viability ([2]; first compound 0.08 µM)	relative viability ([2]; first compound 0.253 µM)	relative viability ([2]; first compound 0.8 µM)	relative viability ([2]; first compound 2.53 µM)	relative viability ([2]; first compound 8 µM)	relative viability ([3]; first compound 0.08 µM)	relative viability ([3]; first compound 0.253 µM)	relative viability ([3]; first compound 0.8 µM)	relative viability ([3]; first compound 2.53 µM)	relative viability ([3]; first compound 8 µM)	relative viability ([4]; first compound 0.08 µM)	relative viability ([4]; first compound 0.253 µM)	relative viability ([4]; first compound 0.8 µM)	relative viability ([4]; first compound 2.53 µM)	relative viability ([4]; first compound 8 µM)
NCI-H2023	0.718	0.6	0.646	0.533	0.603	0.445	0.383	0.373	0.377	0.278	0.481	0.424	0.318	0.198	0.123	0.584	0.635	0.471	0.29	0.149
HCC-78	0.585	0.792	0.653	0.696	0.592	0.816	0.773	0.604	0.646	0.692	0.433	0.368	0.341	0.379	0.375	0.576	0.425	0.372	0.416	0.489
NCI-H522	0.773	0.716	0.647	0.654	0.829	0.62	0.671	0.662	0.743	0.601	0.741	0.711	0.567	0.685	0.7	0.751	0.88	0.859	0.911	0.886
ChaGo-K-1	0.902	0.986	0.888	0.947	0.983	0.541	0.535	0.446	0.415	0.431	0.614	0.473	0.527	0.42	0.316	0.559	0.61	0.612	0.477	0.309
EPLC-272H	0.353	0.252	0.279	0.312	0.258	0.318	0.264	0.361	0.34	0.301	0.299	0.287	0.291	0.259	0.247	0.455	0.342	0.326	0.365	0.399
LCLC-97TM1	0.205	0.2	0.204	0.211	0.209	0.359	0.459	0.455	0.389	0.374	0.481	0.615	0.594	0.554	0.474	0.848	0.921	0.844	0.808	0.647
LK-2	0.861	0.817	0.779	0.857	0.575	0.658	0.522	0.454	0.334	0.352	0.262	0.191	0.21	0.184	0.226	0.275	0.252	0.295	0.197	0.379
CAL-12T	0.407	0.366	0.311	0.382	0.348	0.617	0.568	0.572	0.519	0.63	0.696	0.603	0.735	0.779	0.526	0.375	0.502	0.419	0.521	0.372
NCI-H322M	0.499	0.478	0.482	0.548	0.552	0.826	0.787	0.849	0.875	0.817	0.544	0.503	0.599	0.506	0.408	0.281	0.243	0.255	0.256	0.257
NCI-H2126	0.552	0.576	0.536	0.494	0.564	0.512	0.534	0.554	0.535	0.507	0.812	0.654	0.677	0.635	0.595	0.727	0.693	0.71	0.57	0.501
NCI-H596	0.803	0.687	0.697	0.862	0.733	0.913	0.761	0.751	0.948	0.829	0.909	0.803	0.781	0.654	0.514	0.725	0.72	0.697	0.525	0.539
LU99A	0.631	0.519	0.547	0.552	0.546	1.09	0.881	0.94	0.93	0.855	0.307	0.299	0.269	0.3	0.283	0.562	0.559	0.511	0.39	0.384
NCI-H1666	0.859	0.998	0.841	0.818	0.838	0.586	0.595	0.598	0.522	0.569	0.831	0.818	0.831	0.644	0.566	0.836	0.774	0.589	0.533	0.561
NCI-H520	0.748	0.665	0.563	0.807	0.817	0.572	0.542	0.561	0.574	0.497	0.245	0.237	0.317	0.289	0.253	0.216	0.239	0.185	0.263	0.193
